Test results reported in patent publication US20080200454A1, “CARBON-LINKED TETRAHYDRO-PYRAZOLO-PYRIDINE MODULATORS OF CATHEPSIN S” (priority 2007, published 2008).

Target: Recombinant human cathepsin S (CatS) (Homo sapiens, UniProt P25774)
Assay: Recombinant human cathepsin S (CatS) inhibition assay, fluorogenic substrate Z-Valine-Valine-Arginine-AMC;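 also: Baculovirus-expressed CatS in pH 5.0 sodium acetate buffer with DTT and NaCl, fluorescence read each minute over 20 min, inhibition derived from rate slope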
Details: not given

Chain of Recombinant human cathepsin S (CatS) (P25774 115-331): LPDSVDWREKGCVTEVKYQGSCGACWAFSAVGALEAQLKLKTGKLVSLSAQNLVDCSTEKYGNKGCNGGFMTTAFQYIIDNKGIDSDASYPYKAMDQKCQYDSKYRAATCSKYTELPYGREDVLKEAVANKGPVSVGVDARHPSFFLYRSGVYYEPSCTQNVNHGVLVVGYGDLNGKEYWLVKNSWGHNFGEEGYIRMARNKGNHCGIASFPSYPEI

SMILES	IC50
NC(=O)C(=O)N1CCc2c(c(-c3ccc(Cl)c(C#Cc4ccc(CNCc5ccc(Cl)cc5)cc4)c3)nn2C[C@@H](O)CN2CCSCC2)C1 [Example 249, (S)-2-[3-(4-Chloro-3-{4-[(4-chloro-benzylamino)-methyl]-phenylethynyl}-phenyl)-1-(2-hydroxy-3-thiomorpholin-4-yl-propyl)-1,4,6,7-tetrahydro-pyrazolo[4,3-c]pyridin-5-yl]-2-oxo-acetamide]	50 nM
CS(=O)(=O)N1CCc2c(c(-c3ccc(Cl)c(C#Cc4ccc(Cl)cc4)c3)nn2C[C@@H](O)CN2CCC(C3CCNCC3)CC2)C1 [Example 448, (2S)-1-(4,4′-Bipiperidin-1-yl)-3-[3-{4-chloro-3-[(4-chlorophenyl)ethynyl]phenyl}-5-(methylsulfonyl)-4,5,6,7-tetrahydro-1H-pyrazolo[4,3-c]pyridin-1-yl]propan-2-ol]	10 nM
CS(=O)(=O)N1CCc2c(c(-c3ccc(Cl)c(C#Cc4ccc(Cl)cc4)c3)nn2CC(O)CN2CCOCC2)C1 (centres unmarked) [Example 124, 1-{3-[4-Chloro-3-(4-chloro-phenylethynyl)-phenyl]-5-methanesulfonyl-4,5,6,7-tetrahydro-pyrazolo[4,3-c]pyridin-1-yl}-3-morpholin-4-yl-propan-2-ol]	150 nM
C[C@H]1COCCN1CCCn1nc(-c2ccc(Cl)c(C#Cc3ccc(Cl)c(CNCC(=O)O)c3)c2)c2c1CCNC2 [Example 553, N-[(2-Chloro-5-{[2-chloro-5-(1-{3-[(3S)-3-methylmorpholin-4-yl]propyl}-4,5,6,7-tetrahydro-1H-pyrazolo[4,3-c]pyridin-3-yl)phenyl]ethynyl}phenyl)methyl]glycine]	450 nM
CS(=O)(=O)N1CCc2c(c(-c3ccc(Cl)c(C#Cc4cccc(CC#N)c4)c3)nn2CCCN2CCOCC2)C1 [Example 4, (3-{2-Chloro-5-[5-methanesulfonyl-1-(3-morpholin-4-yl-propyl)-4,5,6,7-tetrahydro-1H-pyrazolo[4,3-c]pyridin-3-yl]-phenylethynyl}-phenyl)-acetonitrile]	750 nM
CS(=O)(=O)N1CCc2c(c(-c3ccc(Cl)c(C#Cc4ccc(Cl)cc4)c3)nn2CC(O)CN2CCC(C(N)=O)CC2)C1 (centres unmarked) [Example 128, 1-(3-{3-[4-Chloro-3-(4-chloro-phenylethynyl)-phenyl]-5-methanesulfonyl-4,5,6,7-tetrahydro-pyrazolo[4,3-c]pyridin-1-yl}-2-hydroxy-propyl)-piperidine-4-carboxylic acid amide]	110 nM
CS(=O)(=O)N1CCc2c(c(-c3ccc(Cl)c(C#Cc4ccc5c(c4)CN[C@@H](C(=O)O)C5)c3)nn2CCCN2CCOCC2)C1 [Example 202, (3R)-7-({2-Chloro-5-[5-(methylsulfonyl)-1-(3-morpholin-4-ylpropyl)-4,5,6,7-tetrahydro-1H-pyrazolo[4,3-c]pyridin-3-yl]phenyl}ethynyl)-1,2,3,4-tetrahydroisoquinoline-3-carboxylic acid]	390 nM
CS(=O)(=O)N1CCc2c(c(-c3ccc(Cl)c(C#Cc4ccc(CNCc5ccc(Cl)cc5)cc4)c3)nn2CC(O)CN2CCC(C(N)=O)CC2)C1 (centres unmarked) [Example 363, 1-{3-[3-(4-Chloro-3-{[4-({[(4-chlorophenyl)methyl]amino}methyl)phenyl]ethynyl}phenyl)-5-(methylsulfonyl)-4,5,6,7-tetrahydro-1H-pyrazolo[4,3-c]pyridin-1-yl]-2-hydroxypropyl}piperidine-4-carboxamide]	90 nM
CS(=O)(=O)N1CCc2c(c(-c3ccc(Cl)c(/C=C/c4ccccc4)c3)nn2CCCN2CCOCC2)C1 [Example 68, 3-(4-Chloro-3-E-styryl-phenyl)-5-methanesulfonyl-1-(3-morpholin-4-yl-propyl)-4,5,6,7-tetrahydro-1H-pyrazolo[4,3-c]pyridine]	2850 nM
CS(=O)(=O)N1CCc2c(c(-c3ccc(Cl)c(C#Cc4ccc(CN)cc4)c3)nn2CCCN2CCOCC2)C1 [Example 69, 4-{2-Chloro-5-[5-methanesulfonyl-1-(3-morpholin-4-yl-propyl)-4,5,6,7-tetrahydro-1H-pyrazolo[4,3-c]pyridin-3-yl]-phenylethynyl}-benzylamine]	530 nM

Same assay, conditions: CatS IC50

SMILES	IC50
C[C@H]1COCCN1C[C@@H](O)Cn1nc(-c2ccc(Cl)c(C#Cc3ccc(CNCc4ccc(Cl)cc4)cc3)c2)c2c1CCN(S(C)(=O)=O)C2 [Example 529, (2R)-1-[3-(4-Chloro-3-{[4-({[(4-chlorophenyl)methyl]amino}methyl)phenyl]ethynyl}phenyl)-5-(methylsulfonyl)-4,5,6,7-tetrahydro-1H-pyrazolo[4,3-c]pyridin-1-yl]-3-[(3S)-3-methylmorpholin-4-yl]propan-2-ol]	120 nM
CS(=O)(=O)N1CCc2c(c(-c3ccc(Cl)c(C#Cc4ccc(CNCc5ccc(Cl)cc5)cc4)c3)nn2CCCN2C[C@H]3C[C@@H]2CN3)C1 [Example 494, 1-[4-({2-Chloro-5-[1-{3-[(1R,4R)-2,5-diazabicyclo[2.2.1]hept-2-yl]propyl}-5-(methylsulfonyl)-4,5,6,7-tetrahydro-1H-pyrazolo[4,3-c]pyridin-3-yl]phenyl}ethynyl)phenyl]-N-[(4-chlorophenyl)methyl]methanamine]	310 nM
NC(=O)C(=O)N1CCc2c(c(-c3ccc(Cl)c(C#Cc4ccc(Cl)c(C(=O)N5CCCC5)c4)c3)nn2CCCN2CCSCC2)C1 [Example 567, 2-[3-(4-Chloro-3-{[4-chloro-3-(pyrrolidin-1-ylcarbonyl)phenyl]ethynyl}phenyl)-1-(3-thiomorpholin-4-ylpropyl)-1,4,6,7-tetrahydro-5H-pyrazolo[4,3-c]pyridin-5-yl]-2-oxoacetamide]	160 nM
CS(=O)(=O)N1CCc2c(c(-c3ccc(Cl)c(C#Cc4ccc(CN[C@@H](CO)c5ccccc5)cc4)c3)nn2CCCN2CCOCC2)C1 [Example 209, (2R)-2-({[4-({2-Chloro-5-[5-(methylsulfonyl)-1-(3-morpholin-4-ylpropyl)-4,5,6,7-tetrahydro-1H-pyrazolo[4,3-c]pyridin-3-yl]phenyl}ethynyl)phenyl]methyl}amino)-2-phenylethanol]	100 nM
CS(=O)(=O)N1CCc2c(c(-c3ccc(Cl)c(C#Cc4ccc(-c5nc6ccccc6[nH]5)cc4)c3)nn2CCCN2CCOCC2)C1 [Example 320, 3-(3-{[4-(1H-Benzimidazol-2-yl)phenyl]ethynyl}-4-chlorophenyl)-5-(methylsulfonyl)-1-(3-morpholin-4-ylpropyl)-4,5,6,7-tetrahydro-1H-pyrazolo[4,3-c]pyridine]	90 nM
C[C@H]1COCCN1CCCn1nc(-c2ccc(Cl)c(C#Cc3ccc(Cl)c(C(=O)N4CCCC4)c3)c2)c2c1CCN(C(=O)C(N)=O)C2 [Example 573, 2-[3-(4-Chloro-3-{[4-chloro-3-(pyrrolidin-1-ylcarbonyl)phenyl]ethynyl}phenyl)-1-{3-[(3S)-3-methylmorpholin-4-yl]propyl}-1,4,6,7-tetrahydro-5H-pyrazolo[4,3-c]pyridin-5-yl]-2-oxoacetamide]	190 nM
CCOC(=O)CN1CCc2cc(C#Cc3cc(-c4nn(CCCN5CCOCC5)c5c4CN(S(C)(=O)=O)CC5)ccc3Cl)ccc2C1 [Example 526, Ethyl [6-({2-chloro-5-[5-(methylsulfonyl)-1-(3-morpholin-4-ylpropyl)-4,5,6,7-tetrahydro-1H-pyrazolo[4,3-c]pyridin-3-yl]phenyl}ethynyl)-3,4-dihydroisoquinolin-2(1H)-yl]acetate]	370 nM
